Source: PMC12291851, “Hydrogen Sulfide (H2S)-Donating Formyl Peptide Receptor 2 (FPR2) Agonists: Design, Synthesis, and Biological Evaluation in Primary Mouse Microglia Culture” (Antioxidants, 2025)

Columns and labels:
[1] = tested on: mouse primary microglial cells; assay: LDH release assay in primary microglial cells; assay type: cell-based; settings: 1 μM pretreatment 1 h, then LPS 0.1 μg/mL 24 h
Description: (§1) Primary microglial cell cultures were derived from the cortices of 1–2-day-old mouse pups (1pup/1 brain/1 flask). After decapitation, the brains were extracted and immediately placed in cold Hanks’ Balanced Salt Solution (HBSS, Gibco, New York, NY, USA) on ice. The brains were washed at least three times with 7 mL of HBSS and then transferred to 10 mL of fresh culture media consisting of Dulbecco’s Modified Eagle Medium (DMEM) with GlutaMax and high glucose (4.5 g/L) (Gibco, New York, NY, USA) on ice. The tissue was minced and incubated in HBSS containing glucose, bovine serum albumin (BSA; Sigma-Aldrich, St. Louis, MO, USA), and HEPES (Gibco, New York, NY, USA) with 0.025% trypsin at 37 °C for 20 min. The trypsinization was halted by adding DMEM with GlutaMax and high glucose (4.5 g/L) supplemented with 10% heat-inactivated fetal bovine serum (FBS, Gibco, New York, NY, USA). […] The purity of microglial cell cultures was assessed as we have shown previously. […]
LDH release was measured as previously described by as an estimation of cell damage 24 h after LPS treatment. […] Absorbance was measured at 540 nm using an Infinite M200PRO microplate reader (TECAN, Männedorf, Switzerland). The results were normalized to the LDH activity released from vehicle-treated cells (considered as 100%) and expressed as a percentage of the control ± SD.

[2] = tested on: mouse primary microglial cells; assay: NO release assay (Griess) in primary microglial cells; assay type: cell-based; settings: for LPS-induced NO production: 1 μM pretreatment 1 h, then LPS 0.1 μg/mL 24 h; for NO levels under basal conditions: 1 μM, no LPS
Description: Primary microglial cell cultures were derived from the cortices of 1–2-day-old mouse pups (1pup/1 brain/1 flask). After decapitation, the brains were extracted and immediately placed in cold Hanks’ Balanced Salt Solution (HBSS, Gibco, New York, NY, USA) on ice. The brains were washed at least three times with 7 mL of HBSS and then transferred to 10 mL of fresh culture media consisting of Dulbecco’s Modified Eagle Medium (DMEM) with GlutaMax and high glucose (4.5 g/L) (Gibco, New York, NY, USA) on ice. The tissue was minced and incubated in HBSS containing glucose, bovine serum albumin (BSA; Sigma-Aldrich, St. Louis, MO, USA), and HEPES (Gibco, New York, NY, USA) with 0.025% trypsin at 37 °C for 20 min. The trypsinization was halted by adding DMEM with GlutaMax and high glucose (4.5 g/L) supplemented with 10% heat-inactivated fetal bovine serum (FBS, Gibco, New York, NY, USA). The tissue was then gently triturated to obtain a single-cell suspension. Cells were plated at a density of 3 × 10^5 cells/cm^2 in culture medium composed of DMEM with GlutaMax and high glucose (4.5 g/L), supplemented with 10% heat-inactivated FBS, 100 U/mL penicillin, and 0.1 mg/mL streptomycin (all from Gibco, New York, NY, USA), in poly-L-lysine-coated 75 cm^2 culture flasks. On the ninth day in vitro (maintained at 37 °C, 5% CO2), the flasks were agitated on a horizontal shaker for 1 h at 37 °C and 80 rpm. Following centrifugation, the cells were resuspended in culture medium and seeded at final densities of 1.25 × 10^6 cells/well in 6-well plates, 2 × 10^5 cells/well in 24-well plates, or 4 × 10^4 cells/well in 96-well plates. The purity of microglial cell cultures was assessed as we have shown previously.
Microglia cell cultures were pretreated with the FPR2 agonists 8b (1 µM) or 7b (1 µM) for 1 h and then stimulated with lipopolysaccharide (LPS; 0.1 μg/mL; Escherichia coli 0111:B4; Sigma-Aldrich, St. Louis, MO, USA) for 24 h. The concentration of 1 μM was chosen based on our preliminary data (Supplementary File). Control cultures were treated with the appropriate vehicle. […]
NO (nitrite ion in solution) production from LPS-treated microglial cells was measured using the Griess reaction, as previously described by. After 24 h of treatment, equal volumes of cell culture medium and Griess reagents (Griess A: 0.1% N-1-naphthylethylenediamine dihydrochloride and Griess B: 1% sulfanilamide in 5% phosphoric acid) were combined in a 96-well plate and the absorbance was read at 540 nm using an Infinite M200PRO microplate reader (TECAN, Männedorf, Switzerland). The results were normalized to the NO levels released by vehicle-treated cells (set at 100%) and expressed as a percentage of the control ± SD.

FPR2 = target: T1, FPR2 (Homo sapiens, UniProt P25090); assay: cell-based
T1 sequence (P25090 1-351): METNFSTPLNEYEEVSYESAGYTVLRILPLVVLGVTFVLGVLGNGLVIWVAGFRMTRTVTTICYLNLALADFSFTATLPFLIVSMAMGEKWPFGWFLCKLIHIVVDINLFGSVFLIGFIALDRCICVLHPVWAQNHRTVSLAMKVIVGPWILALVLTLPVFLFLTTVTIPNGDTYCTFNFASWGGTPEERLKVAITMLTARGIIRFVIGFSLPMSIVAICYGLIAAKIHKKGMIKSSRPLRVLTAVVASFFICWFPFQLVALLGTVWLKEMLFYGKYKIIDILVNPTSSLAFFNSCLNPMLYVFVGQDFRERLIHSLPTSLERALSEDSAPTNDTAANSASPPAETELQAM

IL-10 = IL-10 ELISA in medium of microglial cultures; assay type: cell-based, mouse; settings: 1 μM pretreatment 1 h, then LPS 0.1 μg/mL 24 h
Description: as §1, with “min.” for “min. The trypsinization was halted by adding DMEM with GlutaMax and high glucose (4.5 g/L) supplemented with 10% heat-inactivated fetal bovine serum (FBS, Gibco, New York, NY, USA).”
(§2) To assess the effect of test compounds on IL-18, IL-6, and IL-10 levels, the medium of microglial cell cultures was collected 24 h after LPS treatment. The protein levels of the cytokines IL-18 (Mouse interleukin 18 ELISA kit), IL-6 (Mouse interleukin 6 ELISA kit), and IL-10 (Mouse interleukin 10 ELISA kit; all obtained from FineTest, Wuhan, China) were measured using commercially available enzyme-linked immunosorbent assay kits according to the manufacturer’s instructions. […]

IL-6 = IL-6 ELISA in medium of microglial cultures; assay type: cell-based, mouse; settings: 1 μM pretreatment 1 h, then LPS 0.1 μg/mL 24 h
Description: as §1, with “min.” for “min. The trypsinization was halted by adding DMEM with GlutaMax and high glucose (4.5 g/L) supplemented with 10% heat-inactivated fetal bovine serum (FBS, Gibco, New York, NY, USA).”
as §2

IL-18 = IL-18 ELISA in medium of microglial cultures; assay type: cell-based, mouse; settings: 1 μM pretreatment 1 h, then LPS 0.1 μg/mL 24 h
Description: as §1, with “min.” for “min. The trypsinization was halted by adding DMEM with GlutaMax and high glucose (4.5 g/L) supplemented with 10% heat-inactivated fetal bovine serum (FBS, Gibco, New York, NY, USA).”
as §2

| SMILES | LPS-induced cytotoxicity (LDH release) [1] | LPS-induced NO production [2] | NO levels under basal conditions [2] | EC50 (FPR2) | LPS-induced increase of IL-10 level (IL-10) | LPS-induced increase of IL-6 level (IL-6) | LPS-induced increase of IL-18 level (IL-18) |
| --- | --- | --- | --- | --- | --- | --- | --- |
| N#Cc1ccc(C[C@H](NC(=O)Nc2ccc(F)cc2)C(=S)N2CCc3ccccc32)cc1 [7b, (S)-1-[3-(4-Cyanophenyl)-1-(indolin-1-yl)-1-thioxopropan-2-yl]-3-(4-fluorophenyl)urea] | effectively mitigated | effectively attenuated | neither compound increased NO levels | 600 ± 200 nM | able to counterbalance the LPS-induced increase | able to counterbalance the LPS-induced increase | able to counterbalance the LPS-induced increase |
| N#Cc1ccc(C[C@H](NC(=O)Nc2ccc(Br)cc2)C(=S)N2CCc3ccccc32)cc1 [8b, (S)-1-(4-Bromophenyl)-3-[3-(4-cyanophenyl)-1-(indolin-1-yl)-1-thioxopropan-2-yl]urea] | effectively mitigated | effectively attenuated | neither compound increased NO levels | 40 ± 20 nM | able to counterbalance the LPS-induced increase | able to counterbalance the LPS-induced increase | able to counterbalance the LPS-induced increase |
